Biological target: T1, D-proline reductase (PR), PrdA subunit (Clostridioides difficile, UniProt Q17ZY9)
T1 construct: native PR complex purified from C. difficile VPI 10463; processed PrdA (~23 kDa) with N-terminal pyruvoyl; with PrdB
Experiment: fluorometric OPA assay of 5-aminovalerate production by purified PR
Type: biochemical

For NNCCc1ccccc1 [compound 5, phenelzine], the IC50 was 460 ± 30 µM.

Source: PMC9908766, “Characterizing metabolic drivers of Clostridioides difficile infection with activity-based hydrazine probes” (Frontiers in Pharmacology, 2023)
